This is an account of results in patent US9856228B2, “Peptidyl nitril compounds as dipeptidyl peptidase I inhibitors” (Prozymex A/S, priority 2013, dated 2018).

The target of one data set is T1, CYP3A4 (Homo sapiens, UniProt P08684).
T1 construct: incubated with pooled Human Liver Microsomes (0.25 mg protein/mL); from tissue; host or cells: pooled human liver microsomes
Put plainly: Test for inhibition of CYP3A4 in Human Liver Microsomes. The following applies: pooled Human Liver Microsomes, 75 μM testosterone; read-out: CYP inhibition IC50 CYP3A4. The data set is classed as in vitro ADME. The protocol: (§1) The test for inhibition of CYP2C9, CYP2D6 and CYP3A4 enzymes was performed by Absorption System, Exton, Pa. 19341, USA according to the procedure described below.
(§2) The IC50 values of Example 1 of WO2012119941 (PZ1024) and the compound of the present invention (PZ1025) for CYP enzymes (CYP2C9, CYP2D6, and CYP3A4) in Human Liver Microsomes were measured. […] After a period of incubation, the samples were treated by the addition of protein precipitation solvent and centrifuged. CYP enzyme activities were measured by determining the formation of the CYP probe metabolites by LC-MS/MS, and the IC50 (the concentration of an inhibitor causing 50% inhibition) was estimated using GraphPad Prism® software by fitting the experimental data (percent of control activity remaining at each concentration of test compound) to a sigmoidal model and non-linear regression analysis.
(§3) The CYP enzyme activities in the Human Liver Microsomes were verified in parallel by determining the inhibition of positive inhibitors on the CYP enzyme activities (sulfaphenazole, quinidine and ketoconazole for CYP2C9, CYP2D6, and CYP3A4, respectively).

Data set [1] concerns the target T2, DPPI (Homo sapiens, UniProt P53634). Put plainly: Human DPPI inhibition assay (Gly-Phe-paranitroanilide substrate). Format: biochemical. More on the design: purchased UNIZYME Laboratories A/S. The note with it: Table 1 potency; assay not given. The protocol: Using this assay, the IC50 value of the compound of the invention may be determined using Gly-Phe-paranitroanilide as a DPPI specific substrate.
Assay buffer: 20 mM citric acid (2.1 g citric acid), 150 mM NaCl (4.4 g NaCl) and 2 mM EDTA (370 mg EDTA) was dissolved in 500 mL H2O, and pH was adjusted to 4.5 with HCl.
Substrate: Gly-Phe-paranitroanilide (Sigma Aldrich; Cat. No G0142) was used as the substrate for determination of IC50 values. Km was 2.2 mM. The substrate was solubilized in dinnethylformamid to give a 0.2-0.5 M stock solution, which was then further diluted with stirring in assay buffer to a final concentration of 1 mM.
DPPI: Human DPPI (obtained from UNIZYME Laboratories A/S, DK-2970 Høsholm, Denmark) was stored at −20° C. in a buffer containing 2.5 mM Na-phosphate, 150 mM NaCl, 2 mM cysteamine, 50% glycerol, pH 7.0 at a concentration of 1-2 mg/mL (5-10 μM). This stock solution was diluted 500-1000 times in assay buffer to a concentration of 10-20 nM.
Assay conditions: The assay was performed in 96-well plates. Diluted enzyme (25 μL) was added to the well, followed by 25 μL of test substance in varying concentrations, and the solution was mixed. […] The absorption was measured at 405 nm at 37° C. for every 90 seconds for 12 minutes or every 20 seconds for 4 minutes. […] IC50 was determined using a 4-parameter logistic equation in a non-linear curve fitting routine.

Data set [2] is described as follows: Test for metabolic stability, Mouse Liver Microsomes. The data set is classed as in vitro ADME. The note with it: for Metabolic stability mouse microsomes t½: mouse liver microsomes 1.0 mg/mL; for Metabolic stability mouse microsomes t½ / half-life at 5 μM: 5 μM test compound, NADPH; for half-life at 5 μM: mouse, liver microsomes, pH 7.4, mouse liver microsomes 1.0 mg/mL, read-out: Metabolic stability mouse microsomes t½. The protocol: (§4) The test for metabolic stability was performed by Absorption System, Exton, Pa. 19341, USA.
(§5) The test compound (DPPI inhibitor) was dissolved in 100% DMSO at a concentration of 10 mM. The reaction mixture, consisted of Mouse or Human Liver Microsomes (1.0 mg/mL), 1 mM NADPH, 100 nnM Potassium Phosphate, pH 7.4, 10 mM Magnesium Chloride and test compound at a concentration of 5 μM.
(§6) An aliquot of the reaction mixture (without cofactors) was incubated in a shaking water bath at 37° C. for 3 minutes. Another aliquot of the reaction mixture was prepared as the negative control. The test compound was added into both the reaction mixture and the negative control at a final concentration of 5 μM.
(§7) The reaction was initiated by the addition of NADPH to 1 mM (not into the negative controls) and then incubated in a shaking water bath at 37° C. Aliquots (100 μL) were withdrawn at 0, 10, 20, 30, and 60 minutes or at 0, 15, 30 and 60 minutes and combined with 900 μL of ice-cold 50/50 acetonitrile/dH2O to terminate the reaction. A control (testosterone) was run simultaneously with the test compound in a separate reaction. LC/MS/MS is used to determine the peak area response ratio (peak area corresponding to test compound or control divided by that of an analytical internal standard). The natural log of the percent remaining was plotted versus time. A linear fit was used to determine the rate constant. The fit was truncated if the percent remaining of test compound was less than 10%. The elimination half-lives associated with the disappearance of the test and control compounds were determined to compare their relative metabolic stability.
(Liver microsomes are a subcellular fraction often used to study metabolism.)

The test system of data set [3] is human lymphoblastoid TK6 cells. Put plainly: Test for cytotoxicity (relative cell proliferation, optical absorbance). Format: cell-based. The note with it: for highest concentration that does not cross the significance threshold: TK6 strains GenM-T01 and GenM-C01, 24 hour and 48 hour time points, threshold 80% relative cell density. The protocol: The test for cytotoxicity was performed by Cyprotex Discovery Ltd. 15 Beech lane, Macclesfield, Cheshire, SK10 2DR, UK.
Two strains of cultured human lymphoblastoid TK6 cells was used, GenM-T01 and GenM-C01. A dilution series of each test compound was generated in a 96-well, black microplate with an optically clear base. The plates was analysed at 24 hour and 48 hour time points using a microplate reader, that provides measurements of light absorbance for cells and solutions in the microplates wells.
Cytotoxicity was assessed using relative cell proliferation, quantified using optical absorbance. Cytotoxic compounds are those which reduce relative cell density below a significance threshold set at 80% compared to the vehicle-treated control, at one or more test concentrations.

Data set [4] can be described thus: Test for metabolic stability, Human Liver Microsomes. Format: in vitro ADME. The note with it: for Metabolic stability human microsomes t½: human liver microsomes 1.0 mg/mL; for Metabolic stability human microsomes t½ / half-life at 5 μM: 5 μM test compound, NADPH; for half-life at 5 μM: human, liver microsomes, pH 7.4, human liver microsomes 1.0 mg/mL, read-out: Metabolic stability human microsomes t½. The protocol:
as §4, §5, §6, §7

A further data set addresses T3, CYP2D6 (Homo sapiens, UniProt P10635).
T3 construct: incubated with pooled Human Liver Microsomes (0.25 mg protein/mL); from tissue; host or cells: pooled human liver microsomes
In words: Test for inhibition of CYP2D6 in Human Liver Microsomes. The data set is classed as in vitro ADME. The note with it: pooled Human Liver Microsomes, 7 μM bufuralol; read-out: CYP inhibition IC50 CYP2D6. The protocol: as §1, §2, §3

The target of the next data set is T4, CYP2C9 (Homo sapiens, UniProt P11712).
T4 construct: incubated with pooled Human Liver Microsomes (0.25 mg protein/mL); from tissue; host or cells: pooled human liver microsomes
In words: Test for inhibition of CYP2C9 in Human Liver Microsomes. Format: in vitro ADME. The note with it: pooled Human Liver Microsomes, 6 μM diclofenac; read-out: CYP inhibition IC50 CYP2C9. The protocol:
as §1, §2, §3

For data set [5], the target named is T2, DPPI. Put plainly: Cell based DPPI inhibition assay (neutrophil elastase activity in U937 cells). Further details: endogenous in cells; host or cells: U937 cells. The following applies: 24 hours, elastase activity readout. The protocol:
Using the cell based assay described below, the biological activity of the compounds of the invention or other DPPI inhibitors may be determined.
Neutrophil elastase enzymatic activities in U937 cells grown in the presence of DPPI inhibitors were measured by methods modified from Méthot N; Rubin J; Guay D; Beaulieu C; Ethier D; Reddy T J; Riendeau D and Percival M D (2007) 3 Biol Chem, 282, 20836-20846. U937 cells were propagated in culture media (RPMI 1640, supplemented with 10% FBS, 10 mM Hepes, 1 mM sodium pyrovate, 100 units/ml of each of penicillin and streptomycin). Cells were seeded in 12-well plates at 0.4×10^6 cells/ml in volumes of 1.5 ml per well in the presence of no or increasing concentrations of DPPI inhibitor. 12 points in duplicate in the range of 0.1 nM to 50 μM inhibitor were tested. After 24 hours cells were harvested, washed with PBS and lysed in 20 mM Tris-HCl, pH 7.5, 100 mM NaCl, 0.2% Triton X-100. […]
The activity of neutrophil elastase was determined by measuring the enzymatic release of chromogenic p-nitroaniline from the substrate MetOSuc-Ala-Ala-Pro-Val-pNA, which leads to an increase in absorbance at 405 nm. Assays were carried out in 96-well plates in a final volume of 200 μL at 37° C., and absorbance was measured 8 times during 21-35 minutes using a plate reader. IC50 was determined using a 4-parameter logistic equation in a non-linear curve fitting routine.

Values joined by “and” are separate entries in the source; they are usually repeats but may differ in a detail not shown here. Identical values can stand only once. A value given as a limit tells only on which side of the number the result lay.

T2 sequence (P53634 231-394 limits assumed): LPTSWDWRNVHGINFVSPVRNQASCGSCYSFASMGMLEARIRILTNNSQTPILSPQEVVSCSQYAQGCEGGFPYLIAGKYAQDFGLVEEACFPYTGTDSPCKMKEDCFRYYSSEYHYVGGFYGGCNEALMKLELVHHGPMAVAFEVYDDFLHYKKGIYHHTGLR
T2 sequence (P53634 25-134 limits assumed): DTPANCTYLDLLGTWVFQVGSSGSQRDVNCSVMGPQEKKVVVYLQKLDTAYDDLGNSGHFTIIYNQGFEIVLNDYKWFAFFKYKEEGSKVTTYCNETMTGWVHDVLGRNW
T2 sequence (P53634 395-463 limits assumed): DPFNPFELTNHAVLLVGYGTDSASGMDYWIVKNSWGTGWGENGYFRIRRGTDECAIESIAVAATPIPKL
T3 sequence (P10635 whole entry): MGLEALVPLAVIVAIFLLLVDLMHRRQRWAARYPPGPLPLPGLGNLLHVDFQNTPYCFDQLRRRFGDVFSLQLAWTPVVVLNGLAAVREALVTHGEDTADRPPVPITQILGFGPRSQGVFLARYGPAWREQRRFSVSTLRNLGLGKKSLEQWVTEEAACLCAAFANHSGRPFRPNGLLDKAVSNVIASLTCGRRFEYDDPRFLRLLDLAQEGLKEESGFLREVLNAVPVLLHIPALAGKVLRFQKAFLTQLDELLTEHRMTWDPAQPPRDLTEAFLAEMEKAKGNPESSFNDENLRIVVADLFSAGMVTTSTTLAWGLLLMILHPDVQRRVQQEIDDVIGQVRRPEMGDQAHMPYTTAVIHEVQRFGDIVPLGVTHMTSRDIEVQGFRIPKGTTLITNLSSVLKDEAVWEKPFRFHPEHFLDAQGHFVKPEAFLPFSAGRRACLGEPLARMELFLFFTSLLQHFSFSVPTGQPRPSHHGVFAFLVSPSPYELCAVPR
T4 sequence (P11712 whole entry): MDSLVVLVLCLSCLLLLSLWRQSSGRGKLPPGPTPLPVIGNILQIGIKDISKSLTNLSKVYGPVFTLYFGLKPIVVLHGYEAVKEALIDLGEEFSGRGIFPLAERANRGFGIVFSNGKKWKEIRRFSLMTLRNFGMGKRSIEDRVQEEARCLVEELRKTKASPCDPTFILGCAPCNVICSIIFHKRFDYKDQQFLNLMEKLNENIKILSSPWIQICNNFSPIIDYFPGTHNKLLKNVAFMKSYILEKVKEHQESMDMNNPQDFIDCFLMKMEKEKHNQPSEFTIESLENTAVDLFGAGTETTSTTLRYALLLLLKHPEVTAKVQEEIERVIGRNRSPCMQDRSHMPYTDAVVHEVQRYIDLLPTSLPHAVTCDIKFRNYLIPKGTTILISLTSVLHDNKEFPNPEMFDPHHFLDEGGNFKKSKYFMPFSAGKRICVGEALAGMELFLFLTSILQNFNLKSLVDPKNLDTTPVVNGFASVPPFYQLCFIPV
T1 sequence (P08684 whole entry): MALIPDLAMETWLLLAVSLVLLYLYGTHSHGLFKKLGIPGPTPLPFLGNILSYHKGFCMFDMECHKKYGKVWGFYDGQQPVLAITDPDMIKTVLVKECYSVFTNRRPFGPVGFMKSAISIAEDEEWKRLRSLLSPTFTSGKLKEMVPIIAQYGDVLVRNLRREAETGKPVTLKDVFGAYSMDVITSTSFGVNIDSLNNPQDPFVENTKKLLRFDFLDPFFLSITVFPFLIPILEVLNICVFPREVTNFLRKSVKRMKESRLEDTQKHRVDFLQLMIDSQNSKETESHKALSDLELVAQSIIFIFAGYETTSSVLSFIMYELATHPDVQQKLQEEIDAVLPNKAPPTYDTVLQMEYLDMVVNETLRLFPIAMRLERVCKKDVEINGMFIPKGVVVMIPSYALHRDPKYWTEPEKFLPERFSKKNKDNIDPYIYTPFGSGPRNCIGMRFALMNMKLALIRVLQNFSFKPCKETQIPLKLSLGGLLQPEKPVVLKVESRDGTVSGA

On to `CN1CCN(Cc2ccc(-c3ccc(C[C@@H](C#N)NC(=O)C4(N)CCCCC4)cc3)cc2)CC1` [PZ1024, reference compound], for which the concentration for half-maximal inhibition (IC50) at CYP3A4 was over 100000 nM; against DPPI [1], 37 nM; on CYP2D6, 18000 nM; at CYP2C9, over 100000 nM. Further, the “Metabolic stability mouse microsomes t½” value in data set [2] is on record as “t½ ≈ 10 min”. The values for the half-life at 5 μM in data set [2] and in data set [4] were about 10 min and about 55 min, respectively. For the same compound, the “highest concentration that does not cross the significance threshold” value in data set [3] is 15 µM. In addition, in data set [4], the “Metabolic stability human microsomes t½” value is “t½ ≈ 55 min”.

Regarding `CN1CCN(Cc2ccc(-c3ccc(C[C@@H](C#N)NC(=O)C4(N)CCOCC4)cc3)cc2)CC1` [PZ1025, (S)-4-amino-N-(1-cyano-2-(4′-((4-methylpiperazin-1-yl)methyl)biphenyl-4-yl)ethyl)tetrahydro-2H-pyran-4-carboxamide], the IC50 on CYP3A4 is over 100000 nM; against DPPI [1], 34 nM; on DPPI [5], 11 nM and ~11 nM; on CYP2D6 it was over 100000 nM; on CYP2C9 it was over 100000 nM. Also, the “half-life in mouse liver microsomes, times higher than PZ1024” value in data set [2] (PZ1025 versus PZ1024) was “more than 6 times”. The “half-life in mouse liver microsomes, times higher than PZ1032” value in data set [2] (PZ1025 versus PZ1032) is “about 2 times”. Also, in data set [2], the “Metabolic stability mouse microsomes t½” value is recorded as “t½ ≈ 65 min”. Moreover, the half-life at 5 μM in data set [2] was about 65 min; in data set [4], over 300 min. Also, in data set [3] (PZ1025 versus PZ1024, TK6 cytotoxicity), the “times less toxic than PZ1024” value is “at least 5 times”. Further, in data set [3], the “highest concentration that does not cross the significance threshold” value was found to be 150 µM. Further, the “half-life in human liver microsomes, times higher than PZ1024” value in data set [4] (PZ1025 versus PZ1024) was “more than 5 times”. The “half-life in human liver microsomes, times higher than PZ1032” value in data set [4] (PZ1025 versus PZ1032) is “more than 5 times”. The “Metabolic stability human microsomes t½” value in data set [4] was “t½ > 300 min”.

Consider `CN1CCN(S(=O)(=O)c2ccc(-c3ccc(C[C@@H](C#N)NC(=O)C4(N)CCOCC4)cc3)cc2)CC1` [PZ1032, reference compound], for which, in data set [2], the “Metabolic stability mouse microsomes t½” value is “t½ ≈ 35 min” and the half-life at 5 μM is 35 min. Further, in data set [4], the “Metabolic stability human microsomes t½” value is “t½ ≈ 50 min” and the half-life at 5 μM came out at 50 min. This compound had an IC50 against DPPI [5] of about 11 nM.

The term IC50 denotes the concentration at which inhibition is half-maximal.
